Source: patent publication US9494594B2, “Method of determining administration effect in cancer chemotherapy with S-1” (National University Corporation Chiba University, priority 2012, dated 2016)

Tested on: shDCN cell line and Mock cell line of anticancer drug-resistant cell lines Sa-3R and KB-R
Experiment: 5-FU sensitivity test, MTS cell survival assay
Format: cell-based
Settings: 72 hours incubation, shDCN vs Mock cell line
Description: Next, the shDCN cell line and the Mock cell line were cultured in the presence of an anticancer drug, and a change in the degree of resistance to the anticancer drug by the suppressed expression of DCN was verified by measuring a change in cell growth ability. 5-FU was used as the anticancer drug.
The shDCN cell line and the Mock cell line were each seeded to a 96-well plate at a density of 2×10^3 cells/100 μl of medium/well, and simultaneously mixed with 10 μl of a medium supplemented with 5-FU. The concentration of 5-FU was adjusted so that the final concentration was 1 μM to 1×10^4 μM. After that, the cells were incubated for 72 hours, and a cell survival rate was evaluated by an MTS assay. An MTS solution (product of Promega Corporation) was added at a volume of 10 μl/well, and the cells were incubated for 4 hours. After that, counting was performed with a plate reader at a wavelength of 490 nm. A 50% survival concentration (IC50) was determined based on the results of, the MTS assay.

In the case of `O=c1[nH]cc(F)c(=O)[nH]1` [5-FU, 5-fluorouracil], the “IC50 value of shDCN cell line relative to Mock cell line (increase in sensitivity to 5-FU)” value is reported as “about 10 times lower”.
